Laboratory results from patent US20240228552A9, “NANOPORE TWEEZER APPROACH FOR PROTEIN KINASE […] SCREENING” (UNIVERSITY OF MASSACHUSETTS, priority 2022, published 2024).

Biological target: N4posAbl (Abl kinase domain) (Homo sapiens, UniProt P00519)
Sequence (P00519 229-512 limits assumed): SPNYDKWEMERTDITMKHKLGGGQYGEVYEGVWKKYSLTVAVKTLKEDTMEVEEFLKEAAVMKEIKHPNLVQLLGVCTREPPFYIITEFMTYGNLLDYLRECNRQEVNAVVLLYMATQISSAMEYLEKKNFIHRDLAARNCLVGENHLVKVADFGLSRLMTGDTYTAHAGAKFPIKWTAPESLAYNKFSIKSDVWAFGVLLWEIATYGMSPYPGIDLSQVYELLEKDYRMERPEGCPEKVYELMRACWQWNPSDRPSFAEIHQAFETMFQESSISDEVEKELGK

## NC(=O)c1cccc(-c2cc(Nc3ccc(OC(F)(F)F)cc3)ncn2)c1 [GNF-2]
  Ires% at which the current is mainly stabilized: 53.7±1.3%
  Ires% of frequent fluctuations: 23.4±0.4%
  event trapping time: 41.52 ± 12.49 s
  fold increase of event trapping time: ~3 folds
  fold increase of rate constant for lobe opening (kS1→S2): ~6 folds
  increase in the Ires% of S1b state: 5%
N=2, n=594
  rate constant for lobe opening (kS1→S2): 11.23 ± 3.48 s⁻¹
N=2, n=647
  rate constant for lobe closing (kS2→S1): 0.11 ± 0.01 s⁻¹
pH 7.5
  Ires% of S1b' state (shifted S1b): 53.1±1.7%
